The results in this text go back to ChEMBL document CHEMBL1201862, “PubChem BioAssay data set” (2004).

For one experiment, the target named is T1, Caspase-3 (Homo sapiens, UniProt P42574).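 Note: Dose-response selectivity test against caspase-3 for candidate inhibitors of sentrin-specific proteases (SENPs).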
T1 sequence (P42574 whole entry): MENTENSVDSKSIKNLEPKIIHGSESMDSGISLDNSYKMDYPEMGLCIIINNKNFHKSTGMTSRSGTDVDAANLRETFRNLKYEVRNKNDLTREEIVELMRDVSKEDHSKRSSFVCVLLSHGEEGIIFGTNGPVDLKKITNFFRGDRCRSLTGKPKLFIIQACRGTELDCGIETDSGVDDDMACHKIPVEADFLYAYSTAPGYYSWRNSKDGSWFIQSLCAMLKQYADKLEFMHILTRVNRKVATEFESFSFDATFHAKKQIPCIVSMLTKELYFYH
The format is functional.

The target in experiment [1] is T2, Sentrin-specific protease 7 (Homo sapiens, UniProt Q9BQF6).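 Note: Luminescence-based dose-response confirmation of ultra-high-throughput screening hits, measuring inhibition of SENP7.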
T2 sequence (Q9BQF6 whole entry): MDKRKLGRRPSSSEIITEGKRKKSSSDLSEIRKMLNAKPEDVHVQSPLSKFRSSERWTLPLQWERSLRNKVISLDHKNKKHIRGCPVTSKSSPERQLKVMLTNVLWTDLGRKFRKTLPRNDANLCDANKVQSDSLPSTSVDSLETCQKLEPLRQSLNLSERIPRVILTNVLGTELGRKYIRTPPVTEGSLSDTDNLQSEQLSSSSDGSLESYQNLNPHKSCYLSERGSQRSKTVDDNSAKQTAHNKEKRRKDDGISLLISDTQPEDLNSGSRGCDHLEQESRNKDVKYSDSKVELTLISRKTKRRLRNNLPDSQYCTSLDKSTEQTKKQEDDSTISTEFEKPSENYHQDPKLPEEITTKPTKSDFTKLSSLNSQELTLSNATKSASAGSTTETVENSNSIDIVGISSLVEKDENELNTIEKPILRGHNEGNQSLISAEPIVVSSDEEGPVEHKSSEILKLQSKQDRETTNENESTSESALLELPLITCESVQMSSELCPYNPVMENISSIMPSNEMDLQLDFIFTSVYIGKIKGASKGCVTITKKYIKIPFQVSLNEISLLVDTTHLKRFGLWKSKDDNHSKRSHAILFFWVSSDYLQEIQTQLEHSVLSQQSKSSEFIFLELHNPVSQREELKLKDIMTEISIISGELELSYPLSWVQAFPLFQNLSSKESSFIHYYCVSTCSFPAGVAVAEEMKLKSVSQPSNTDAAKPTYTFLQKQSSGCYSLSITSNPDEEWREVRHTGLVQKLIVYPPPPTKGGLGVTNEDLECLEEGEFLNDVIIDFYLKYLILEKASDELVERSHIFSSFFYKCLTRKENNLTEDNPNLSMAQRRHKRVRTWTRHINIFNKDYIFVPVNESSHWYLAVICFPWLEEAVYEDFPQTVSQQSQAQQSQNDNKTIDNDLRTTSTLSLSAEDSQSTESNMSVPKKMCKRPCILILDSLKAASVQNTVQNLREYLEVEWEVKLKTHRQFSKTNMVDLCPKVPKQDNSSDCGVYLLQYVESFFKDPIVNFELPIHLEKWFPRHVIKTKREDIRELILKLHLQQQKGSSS
Type of experiment: functional.

In experiment [2] the target is T3, Sentrin-specific protease 6 (Homo sapiens, UniProt Q9GZR1).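 Note: Luminescence-based dose-response confirmatory assay of SENP6 inhibition, following up an ultra-high-throughput screen.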
T3 sequence (Q9GZR1 whole entry): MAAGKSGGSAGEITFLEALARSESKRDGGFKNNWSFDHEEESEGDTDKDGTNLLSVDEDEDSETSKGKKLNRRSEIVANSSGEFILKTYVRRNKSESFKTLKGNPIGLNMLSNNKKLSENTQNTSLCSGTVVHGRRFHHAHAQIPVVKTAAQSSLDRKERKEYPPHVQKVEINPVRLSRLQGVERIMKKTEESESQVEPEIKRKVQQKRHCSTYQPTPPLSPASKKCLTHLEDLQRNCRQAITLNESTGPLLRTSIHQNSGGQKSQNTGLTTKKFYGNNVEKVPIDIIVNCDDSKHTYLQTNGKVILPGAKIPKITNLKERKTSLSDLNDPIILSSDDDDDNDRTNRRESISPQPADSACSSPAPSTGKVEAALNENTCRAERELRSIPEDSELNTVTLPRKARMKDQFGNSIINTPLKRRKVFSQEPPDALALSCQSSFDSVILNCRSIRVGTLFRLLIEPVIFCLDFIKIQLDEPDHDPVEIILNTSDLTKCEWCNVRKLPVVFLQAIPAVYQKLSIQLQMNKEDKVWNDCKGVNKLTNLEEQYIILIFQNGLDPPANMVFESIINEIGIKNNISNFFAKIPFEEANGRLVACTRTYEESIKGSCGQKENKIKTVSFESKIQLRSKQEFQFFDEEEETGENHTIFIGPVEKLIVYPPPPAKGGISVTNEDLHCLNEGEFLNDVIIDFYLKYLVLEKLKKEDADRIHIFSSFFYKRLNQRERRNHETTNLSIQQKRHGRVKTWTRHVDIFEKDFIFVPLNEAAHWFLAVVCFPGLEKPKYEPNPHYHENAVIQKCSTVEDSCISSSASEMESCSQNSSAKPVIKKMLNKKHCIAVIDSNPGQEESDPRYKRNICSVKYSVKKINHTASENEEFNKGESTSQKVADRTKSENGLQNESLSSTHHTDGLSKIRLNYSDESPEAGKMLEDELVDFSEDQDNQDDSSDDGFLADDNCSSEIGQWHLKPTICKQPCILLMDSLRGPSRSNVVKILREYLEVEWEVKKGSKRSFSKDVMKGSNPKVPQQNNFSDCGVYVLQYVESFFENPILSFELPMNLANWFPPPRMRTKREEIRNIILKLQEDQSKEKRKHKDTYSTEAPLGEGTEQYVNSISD
Type of experiment: functional.

The target of experiment [3] is T4, Sentrin-specific protease 8 (Homo sapiens, UniProt Q96LD8).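 Note: luminescence read-out of SENP8 inhibition, dose-response confirmation following an ultra-high-throughput screen.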
T4 sequence (Q96LD8 whole entry): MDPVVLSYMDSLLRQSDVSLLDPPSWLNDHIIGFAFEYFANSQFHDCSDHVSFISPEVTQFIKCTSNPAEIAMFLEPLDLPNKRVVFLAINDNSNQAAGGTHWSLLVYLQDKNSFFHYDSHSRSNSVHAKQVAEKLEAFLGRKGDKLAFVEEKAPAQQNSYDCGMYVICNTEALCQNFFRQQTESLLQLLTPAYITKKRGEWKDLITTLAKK
The format is functional.

Experiment [4] in a line: microbe, parasite or virus in culture. The format is functional. The conditions noted are these: Mycobacterium tuberculosis.
The target of experiment [5] is T5, Ubiquitin-conjugating enzyme E2 N (Homo sapiens, UniProt P61088).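 Note: Dose-response confirmation in a TR-FRET assay detecting UBC13-driven polyubiquitin chain formation, inhibition measured.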
T5 sequence (P61088 whole entry): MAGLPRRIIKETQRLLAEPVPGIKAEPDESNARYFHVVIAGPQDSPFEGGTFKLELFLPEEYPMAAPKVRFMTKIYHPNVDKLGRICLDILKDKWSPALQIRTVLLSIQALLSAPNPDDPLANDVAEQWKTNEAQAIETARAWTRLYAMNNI
Type of experiment: functional.

Experiment [6] in a line: A549 cell cytotoxicity, dose response, cytotoxicity control, plate reader, cherry-pick, antagonist series (AID 743412). The format is functional, cell-based.
Experiment [7] in a line: toxicity toward HepG2 liver cells – cell-based, plate reader, cherry-pick, antagonist series, cytotoxicity control, dose response (AID 743416). The format is functional.
A short description of experiment [8]: blockers of bursicon-stimulated LGR2 cAMP reporter – cell-based, HEK293, CRE-luciferase reporter, cherry pick, set 2, dose response (AID 743343).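 Note: transfected cells were stimulated with diluted bursicon conditioned medium after compound addition.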 Type of experiment: functional. (In general: Reporter assays use an easily measured gene product as a stand-in for the process of interest.)
The nature of experiment [9]: blockade of melanocortin 4 receptor signaling – cell-based, plate reader, cherry pick, counter-screen for LGR2 antagonist project, dose response (AID 743444).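 Note: transfected HEK 293 cells stimulated with alpha-MSH peptide; potency of inhibitors of the alpha-MSH evoked signal.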 Type of experiment: functional. (A counterscreen serves to expose hits that act by an unwanted route or on another target.)
The nature of experiment [10]: viability loss in HEK293 cells – cell-based, plate reader, cherry-picked samples, cytotoxicity control, dose response (AID 743446). Type of experiment: functional.
Another experiment deals with P388/ADR. The experiment in a line: cells. The conditions noted are these: Mus musculus. The format is functional.
Another experiment relates to SN12K1. The experiment in a line: cells. The conditions noted are these: Homo sapiens. The format is functional.
The test system of a further experiment is P388. The experiment in a line: cells. The format is functional. To be noted: Mus musculus.
In the next experiment the target is Paired box protein Pax-8 (Homo sapiens, UniProt Q06710). The experiment is described as follows: PAX8 transcriptional activity inhibition in RMG-I – RMG-I cells, luciferase, cherry-pick, dose response (AID 687027).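 Note: luciferase reporter driven by Pax8 target thyroperoxidase promoter measured by SteadyGlo luminescence.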 The format is functional, cell-based.
The nature of experiment [11]: activation of miR-122 Renilla sensor silencing – cell-based, Huh7 psiCHECK-miR122, Renilla luciferase, cherry-picked, dose response (AID 651956).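 Note: huh7 hepatoma cells stably carrying a psiCHECK-2 miR-122 sensor plasmid; renilla luciferase signal reporting endogenous miR-122 activity after 48 h compound exposure.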 Type of experiment: functional.
Experiment [12] can be described thus: general mammalian cell viability loss – inhibitor set, cherry-pick, set 2, cytotoxicity control for miR-122 modulator project, dose response (AID 720697). The format is functional, cell-based.

Activity calls are given as the source filed them. Some results are limits rather than exact numbers.

Sequence of Paired box protein Pax-8 (Q06710 whole entry): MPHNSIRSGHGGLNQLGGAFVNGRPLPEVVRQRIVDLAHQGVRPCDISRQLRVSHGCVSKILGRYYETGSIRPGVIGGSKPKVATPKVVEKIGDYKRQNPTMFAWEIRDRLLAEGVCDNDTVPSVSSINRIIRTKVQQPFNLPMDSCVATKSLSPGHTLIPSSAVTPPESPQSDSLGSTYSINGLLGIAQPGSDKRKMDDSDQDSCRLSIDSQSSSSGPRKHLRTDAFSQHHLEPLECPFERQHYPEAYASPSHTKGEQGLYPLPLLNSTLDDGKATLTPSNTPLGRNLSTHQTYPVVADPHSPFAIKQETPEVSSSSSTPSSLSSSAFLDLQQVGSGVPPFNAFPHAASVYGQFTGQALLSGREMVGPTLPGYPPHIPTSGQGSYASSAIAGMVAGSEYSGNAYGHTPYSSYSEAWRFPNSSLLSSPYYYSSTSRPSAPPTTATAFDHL

What is called IC50 is the concentration that gives 50% inhibition. Take `COc1cccc(-c2nnc(-c3ccccc3[N+](=O)[O-])o2)c1`: the IC50 is 19.1 µM (active) on Caspase-3, 10.4 µM (active) in experiment [1], > 100 µM (inactive) in experiment [2] and > 100 µM (inactive) in experiment [3].
As a reminder, the AC50 is the midpoint of the concentration-response curve, whichever way the signal moves. Consider `Ic1ccccc1CN[C@@H]1C2CCN(CC2)[C@@H]1C(c1ccccc1)c1ccccc1`, for which, in experiment [4], the CC50 was 12.6 µM (active). Also, the IC50 in [5] was > 20 µM (inactive). Also, the AC50 in experiment [6] is 7.99 µM (active); in experiment [7], 8.05 µM (active); in experiment [8], 18.1 µM (active); in experiment [9], 21.6 µM (active); in experiment [10], 13.9 µM (active).
As a reminder, the GI50 is the concentration at which growth is held to half of that of the control. For the molecule `C=C1C(=O)O[C@H]2C1[C@H](OC(=O)/C(C)=C\COC(C)=O)C[C@]1(CO1)[C@@H]1[C@H](O)[C@H]3O[C@@]3(C)[C@@H]12` (stereo not given in full), the figures for the GI50 in the experiment with P388/ADR, in the experiment on SN12K1 and in the experiment on P388 were 8.13 µM (inactive), 24.8 µM (inactive) and 3.4 µM (inactive), respectively.
For the molecule `Cc1cn([C@H]2C[C@H](N=[N+]=[N-])[C@@H](CO)O2)c(=O)[nH]c1=O` [ZIDOVUDINE], the figures for the GI50 in the experiment with P388/ADR, with SN12K1 and in the experiment on P388 were > 100 µM (inactive), > 100 µM (inactive) and 99.3 µM (inactive), respectively.
Turning to `C=C1[C@@H](C)[C@H]2[C@H](Cc3ccccc3)NC(=O)[C@]23OC(=O)/C=C/[C@H](O)CCC[C@@H](C)C/C=C/[C@H]3[C@@H]1O`, the GI50 in the experiment on P388/ADR is 15.3 µM (inactive); in the experiment on SN12K1, 0.31 µM (active); with P388 it was 12.4 µM (inactive).
Consider `CNC(=O)OCc1nc([S+](C)[O-])n(C)c1COC(=O)NC` (stereo not given), for which the GI50 in the experiment with P388/ADR, in the experiment with SN12K1 and in the experiment on P388 was > 100 µM (inactive) in each case.
Take `O=C(Nc1ccc2c(c1)CCC2)c1ccc(Br)s1`: the IC50 was 17.5 µM (active) on Caspase-3, 3.4 µM (active) in [1], 5.03 µM (active) in experiment [2] and 4.31 µM (active) in [3].
As to `C=C1C(=O)OC2/C=C(\C)CC(O)/C=C(/CO)CC(OC(=O)/C(C)=C/C)C12` (stereo not given), the GI50 in the experiment with P388/ADR was 16.7 µM (inactive); with SN12K1, 24.8 µM (inactive); in the experiment on P388, 11.1 µM (inactive).
On to `COc1ccc(CC2C(=O)NC(C)C(=O)N(C)C3C(=O)N(C)C(Cc4ccc(O)c(c4)Oc4ccc(cc4)C3O)C(=O)NC(C)C(=O)NC(C)C(=O)N2C)cc1` (stereo not given), for which the GI50 was 2.26 µM (inactive) in the experiment on P388/ADR, 0.00262 µM (active) in the experiment on SN12K1 and 0.00373 µM (active) in the experiment on P388. In addition, the AC50 on Paired box protein Pax-8 is < 0.26 µM (active).
Take `Cc1ccc(/C=N/OC(=O)c2nn(C)cc2Cl)cc1`: the IC50 was 24 µM (active) on Caspase-3, 13 µM (active) in [1], 39 µM (active) in experiment [2] and 54.7 µM (active) in experiment [3].
Regarding `C[C@@H]1CN([C@@H](C)CO)C(=O)c2cc(NS(=O)(=O)c3ccc(F)cc3)ccc2O[C@@H]1CN(C)Cc1ccc(-c2ccccc2)cc1`, the AC50 is 17.7 µM (active) in experiment [11] and < 0.195 µM (active) in experiment [12].
